Legend:
[1] = system: leukocyte esterase (LE); test: internally calibrated electrochemical continuous enzyme assay (ICECEA) with TAPTA as enzyme substrate; format: biochemical; settings: LE concentrations 0-250 μg/L, amperometric current (FIG. 4)
Description: ICECEAs generally follow the following method as described in U.S. 201610040209. First, an enzyme substrate (e.g. an LE and/or HNE substrate of the present disclosure) is placed in a background electrolyte. Next, a reactant or product of an enzymatic reaction of the enzyme is added to the first enzyme substrate/background electrolyte, which creates what is described as a “first assay mixture.” Current flowing through an electrode of the electrochemical assay is then measured after the first assay mixture is formed. Next, the enzyme (e.g. LE and/or HNE) is added to the “first assay mixture” to create a “second assay mixture,” and the current is measured again over a predetermined time period. Enzyme activity is determined based on the change in current over time caused by the addition of the enzyme. […]
The ICECEA includes an electrochemical measuring device. […] The current is measured through the working electrode. […]
Generally, in an ICECEA, adding the reactant/product to the enzyme substrate (in electrolyte) in the electrochemical assay system includes the following steps. […] Current flowing through an electrode of the electrochemical assay system is measured after the first aliquot is added. One or more additional aliquots of the reactant/product are added to the mixture and current flowing through an electrode of the electrochemical assay system is measured again. […]

[2] = system: leukocyte esterase (LE); test: screen-printed electrode strip with monoester substrate, voltammograms at varying LE concentrations; format: biochemical; settings: substrate screen-printed on electrode strip; 0.125 U/m to 0.35 U/ml LE (FIG. 7)
Description: In one embodiment, the substrate of the leukocyte esterase enzyme is screen-printed onto the surfaces of an electrode sensor strips using known and commercially-available techniques and materials.
Specifically, electrode strips were screen printed with the substrate having the structure as depicted in Formula V. The strips were contacted with varying concentrations of LE (i.e. 0.125 U/m to 0.35 U/ml LE).
The plot clearly indicates significant reduction peaks at about −0.17 V, which correspond to the redox reaction of hydroquinone molecules that are released upon cleavage of the monoester by leukocyte esterases at the ester active site. […] Based on this measured level, a determination can be made as to whether the patient's level of LE is high enough to indicate infection.

melting point [°C] | Compound | response of LE enzyme activity relative to LE concentration [1] | relation of reduction peaks to LE activity in the sample [2]
 | Cc1ccc(S(=O)(=O)N[C@@H](C)C(=O)Oc2ccc(OC(=O)[C@H](C)NS(=O)(=O)c3ccc(C)cc3)cc2)cc1 [TAPTA, 4-((tosyl-L-alanyl)oxy)phenyl tosyl-L-alaninate] | linear response relative to LE concentration | 
113 to 116 | COC(=O)c1cncc(S(=O)(=O)N[C@@H](C)C(=O)Oc2ccc(O)cc2)c1 [monoester] |  | directly related to the LE activity within the sample in a dose dependent manner
